From patent US4676822A, “Fluid fertilizers containing thiophosphoryl triamide” (Tennessee Valley Authority, priority 1986, dated 1987)
“And” between values parts separate entries of the source, which are not always exact repeats. Equal values may be shown once.

Legend:
[1] = test system: urease; test: Urease inhibition tests with TPTA and PPDA in fluid fertilizers, banded soil system (urease-active Hastings silt loam); format: biochemical; details: for average % urea unhydrolyzed, 3 days / % urea unhydrolyzed, 3 days: 3 days incubation at 25° C.; for average % urea unhydrolyzed, 3 days / average % urea unhydrolyzed, 6 days: average of A and B samples; for % urea unhydrolyzed, 3 days / % urea unhydrolyzed, 6 days: single sample; for average % urea unhydrolyzed, 6 days / % urea unhydrolyzed, 6 days: 6 days incubation at 25° C.
Description: Samples of UAN (31-0-0), 1 g, and (36-0-0), 0.66 g containing approximately 0.38 g urea and 0.041 g of TPTA were prepared by dissolving solid TPTA in 31-0-0 and 36-0-0 of the compositions shown in Table I, supra. Identical samples containing PPDA and without either inhibitor were prepared to serve as references for purposes of data comparison.
Urease-active soil (Hastings silt loam) was moistened to a moisture content of 20 percent and preincubated at room temperature for two days. Plexiglass containers (6×6×6 cm) were one-half filled with soil and packed to a bulk density of 1.0 g/cm^3. The 31-0-0 and 36-0-0 samples containing TPTA and PPDA as well as samples containing no inhibitor were distributed evenly in a narrow band 6 cm along the soil surface. The containers were filled with soil and again packed to a bulk density of 1.0 g/cm^3. The containers were incubated at 25° C. for the desired reaction period. After incubation the soil from each container was thoroughly mixed, and a 10-g sample was extracted with 100 mL of 2M KCl containing 5 ppm phenylmercuric acetate to prevent urea hydrolysis during handling [L. A. Douglass and J. M. Bremner, Soil Sci. Soc. Am. Proc. 34, 859-862 (1970)]. The urea in the extracts was determined colorimetrically as a measure of unhydrolyzed urea. The results of three-day and six-day incubation tests are illustrated in Table II infra; and as noted supra, plotted in FIG. 1.

[2] = Stability of TPTA in solid mixtures with urea (HPLC); format: physicochemical; details: solid 90% urea-10% TPTA, P(H2O) 12.73 mm Hg
Description: Solid samples (0.25 g) of urea-TPTA mixtures (90 weight percent urea-10 weight precent TPTA) were weighed into a 10-mL beaker, carefully spread into an even layer in the bottom of the beaker, and heated in a forced draft oven at temperatures of 42°, 50°, and 60° C. Samples were contained in desiccators inside the oven, each desiccator conataining a sodium hydroxide solution to yield a partial pressure of water of 12.73 mm Hg at the temperature employed. After heating, the samples were analyzed by High Performance Liquid Chromatography (HPLC) to determine the percent of the original TPTA remaining.
The calculated decomposition rate for 25° C., which was determined from an Arrhenius plot of the 42°, 50°, and 60° C. data are also illustrated in FIG. 2, supra. From a perusal of FIG. 2 it is clearly evident that the shelf life of urea-TPTA mixtures is of extremely short duration.

[3] = Stability of TPTA in 40 wt % urea solution (HPLC); format: physicochemical; details: 25° C.; for % original TPTA remaining: 40 wt % urea solution
Description: A 40 weight percent urea solution (initial pH=8.5) was prepared by dissolving 80 g of urea in 120 g of water. A sample containing 1 weight percent TPTA was prepared by dissolving 1 g of TPTA in 99 g of the 40 weight percent urea solution. The sample was maintained at room temperature (25° C.) and analyzed periodically for TPTA by HPLC. The results of this kinetic study are given in Table IV infra and as noted supra plotted in FIG. 3 along with the first-order rate equation (solid line FIG. 3) which was determined by linear regression.

[4] = Stability of TPTA in UAN (36-0-0) at 25° C. (HPLC); format: physicochemical; details: for % original TPTA remaining: UAN (36-0-0)
Description: A sample containing 1 weight percent TPTA was prepared by dissolving 1 g of TPTA in 99 g of 36-0-0 having the composition given in Table I, supra, and an initial pH of 7.4. The sample was maintained at room temperature (25° C.) and analyzed periodically for TPTA by HPLC.
The results of this kinetic study are given in Table V supra, and as noted supra, plotted in FIG. 4 along with the first-order rate equation (solid line in FIG. 4) which was determined by linear regression.

[5] = test system: urease; details: prior art; cited from earlier work

SMILES: NP(N)(N)=S [TPTA, thiophosphoryl triamide]
- average % urea unhydrolyzed, 3 days ([1]; UAN (31-0-0)): 97.90%
- % urea unhydrolyzed, 3 days ([1]; UAN (31-0-0)): 101.90% and 93.89%
- average % urea unhydrolyzed, 6 days ([1]; UAN (31-0-0)): 48.48%
- % urea unhydrolyzed, 6 days ([1]; UAN (31-0-0)): 47.75% and 49.21%
- average % urea unhydrolyzed, 3 days ([1]; UAN (36-0-0)): 88% and 87.63%
- % urea unhydrolyzed, 3 days ([1]; UAN (36-0-0)): 91.03% and 84.24%
- average % urea unhydrolyzed, 6 days ([1]; UAN (36-0-0)): 47.82% and 48%
- % urea unhydrolyzed, 6 days ([1]; UAN (36-0-0)): 44.37% and 51.28%
- amount of unhydrolyzed urea in the soil relative to PPDA treatment ([1]; after six days): approximately four times that of the PPDA treatment
- % of original TPTA remaining ([2]; 42° C., heating time 0.00 hr): 100.00%
- % of original TPTA remaining ([2]; 42° C., heating time 2.00 hr): 94.78%
- % of original TPTA remaining ([2]; 42° C., heating time 4.00 hr): 83.48%
- % of original TPTA remaining ([2]; 42° C., heating time 5.00 hr): 79.80%
- % of original TPTA remaining ([2]; 42° C., heating time 7.00 hr): 60.03%
- % of original TPTA remaining ([2]; 42° C., heating time 9.0 hr): 53.44%
- % of original TPTA remaining ([2]; 42° C., heating time 9.75 hr): 42.06%
- % of original TPTA remaining ([2]; 42° C., heating time 14.25 hr): 30.69%
- % of original TPTA remaining ([2]; 42° C., heating time 16.00 hr): 8.69%
- % of original TPTA remaining ([2]; 42° C., heating time 18.00 hr): 5.11%
- % of original TPTA remaining ([2]; 50° C., heating time 0.00 hr): 100.00%
- % of original TPTA remaining ([2]; 50° C., heating time 1.01 hr): 97.17%
- % of original TPTA remaining ([2]; 50° C., heating time 2.00 hr): 93.80%
- % of original TPTA remaining ([2]; 50° C., heating time 3.00 hr): 85.92%
- % of original TPTA remaining ([2]; 50° C., heating time 4.00 hr): 71.31%
- % of original TPTA remaining ([2]; 50° C., heating time 5.00 hr): 53.40%
- % of original TPTA remaining ([2]; 50° C., heating time 6.00 hr): 34.26%
- % of original TPTA remaining ([2]; 50° C., heating time 7.00 hr): 23.40%
- % of original TPTA remaining ([2]; 50° C., heating time 8.00 hr): 10.56%
- % of original TPTA remaining ([2]; 60° C., heating time 0.00 hr): 100.00%
- % of original TPTA remaining ([2]; 60° C., heating time 1.00 hr): 94.07%
- % of original TPTA remaining ([2]; 60° C., heating time 2.00 hr): 71.98%
- % of original TPTA remaining ([2]; 60° C., heating time 3.00 hr): 32.26%
- % of original TPTA remaining ([2]; 60° C., heating time 4.00 hr): 3.46%
- % of original TPTA remaining ([2]; 60° C., heating time 5.00 hr): 0.00%
- % of original TPTA remaining ([2]; 60° C., heating time 6.00 hr): 0.00%
- reaction half-life in 40 weight percent urea solution ([3]; 1 wt % TPTA, initial pH 8.5, first-order): 168 days
- % original TPTA remaining ([3]; time 0.00 days): 100.00%
- % original TPTA remaining ([3]; time 9.04 days): 94.96%
- % original TPTA remaining ([3]; time 9.25 days): 94.83%
- % original TPTA remaining ([3]; time 10.21 days): 93.97%
- % original TPTA remaining ([3]; time 13.05 days): 94.25%
- % original TPTA remaining ([3]; time 14.99 days): 89.47%
- % original TPTA remaining ([3]; time 17.22 days): 88.78%
- % original TPTA remaining ([3]; time 20.27 days): 91.44%
- % original TPTA remaining ([3]; time 22.12 days): 87.44%
- % original TPTA remaining ([3]; time 24.07 days): 88.80%
- % original TPTA remaining ([3]; time 29.19 days): 87.81%
- % original TPTA remaining ([3]; time 31.23 days): 87.90%
- % original TPTA remaining ([3]; time 34.23 days): 88.52%
- % original TPTA remaining ([3]; time 36.03 days): 86.26%
- % original TPTA remaining ([3]; time 38.19 days): 91.36%
- % original TPTA remaining ([3]; time 41.19 days): 88.11%
- % original TPTA remaining ([3]; time 43.10 days): 78.25%
- % original TPTA remaining ([3]; time 45.07 days): 79.73%
- % original TPTA remaining ([3]; time 48.04 days): 76.59%
- % original TPTA remaining ([3]; time 50.20 days): 78.68%
- % original TPTA remaining ([3]; time 52.00 days, 74880 min): 76.66% and 76.56%
- % original TPTA remaining ([3]; time 56.04 days): 76.52%
- % original TPTA remaining ([3]; time 62.02 days): 76.02%
- % original TPTA remaining ([3]; time 76.14 days, 109642 min): 76.78%
- % original TPTA remaining ([3]; time 83.11 days, 119678 min): 70.05%
- % original TPTA remaining ([3]; time 97.06 days, 139766 min): 65.19%
- reaction half-life in the 36-0-0 solution ([4]; 1 wt % TPTA, initial pH 7.4, first-order): 43 days
- % original TPTA remaining ([4]; time 0.00 days): 100.00%
- % original TPTA remaining ([4]; time 1.22 days): 100.00%
- % original TPTA remaining ([4]; time 5.22 days): 93.60%
- % original TPTA remaining ([4]; time 7.13 days): 97.15%
- % original TPTA remaining ([4]; time 9.09 days): 81.12%
- % original TPTA remaining ([4]; time 12.07 days): 82.21%
- % original TPTA remaining ([4]; time 14.22 days): 84.30%
- % original TPTA remaining ([4]; time 16.01 days, 23054.4 min): 79.90% and 73.86%
- % original TPTA remaining ([4]; time 20.05 days): 70.87%
- % original TPTA remaining ([4]; time 26.05 days): 72.43%
- % original TPTA remaining ([4]; time 40.17 days): 43.14%
- % original TPTA remaining ([4]; time 47.14 days): 42.94%
- % original TPTA remaining ([4]; time 61.08 days): 32.25%
- % original TPTA remaining ([4]; time 64.99 days): 41.41%
- % original TPTA remaining ([4]; time 71.70 days): 31.14%
- % original TPTA remaining ([4]; time 82.71 days, 119102 min): 29.60%
- % original TPTA remaining ([4]; time 90.71 days, 130622 min): 20.67%
- % original TPTA remaining ([4]; time 96.75 days): 25.07%
- % original TPTA remaining ([4]; time 103.71 days): 21.73%
- % original TPTA remaining ([4]; time 111.71 days): 13.09%
- urease inhibition (in words) [5]: comparable and in some cases more effective than PPDA
